# Measured values as given in PMC5449446, “Metabolic Value Chemoattractants Are Preferentially Recognized at Broad Ligand Range Chemoreceptor of Pseudomonas putida KT2440” (Frontiers in Microbiology, 2017).
# Key:
# [1] = target: T1, PcaY_PP-LBD (Pseudomonas putida, UniProt Q88JK6); assay: biochemical; format: binding, Pseudomonas putida KT2440; details: for ∆G / ∆H: ITC; for KD: ITC at 25°C, 25 μM protein, One Binding Site model, means and SD of three experiments
# T1 construct: His-tag (from the pET28b vector; inferred from NdeI/BamHI cloning and HisTrap purification) (N); made in house; host or cells: Escherichia coli BL21 (DE3)
# T1 sequence (Q88JK6 44-196): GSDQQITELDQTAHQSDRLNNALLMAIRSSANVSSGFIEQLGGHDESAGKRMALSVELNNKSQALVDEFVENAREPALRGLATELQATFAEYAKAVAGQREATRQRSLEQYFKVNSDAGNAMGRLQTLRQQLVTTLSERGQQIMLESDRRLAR
# Method: Experiments were carried out at 25°C using a VP-ITC titration calorimeter (Microcal Inc., Northampton, Massachusetts). […] Obtained data were corrected with the heat changes measured for the injection of ligand into buffer. Data were normalized with the protein concentration (Bradford assay) and fitted with the “One Binding Site” model of the MicroCal version of the ORIGIN 7.0 software (OriginLab Corporation, Northampton, MA, United States), leaving all parameters floating.
# [2] = system: Pseudomonas putida KT2440; assay: Quantitative capillary chemotaxis assay; format: cell-based; details: 30 min, wild type KT2440
# Method: Subsequently, the cells were re-suspended in the same buffer, adjusted to an OD660 of 0.15 and 230 μl aliquots of this bacterial culture were placed into 96-well plates. For the quantitative assays, one-microliter capillary tubes (Microcaps, Drummond Scientific, Ref. […]) were heat-sealed at one end and filled with either the chemotaxis buffer (negative control) or chemotaxis buffer containing the chemoeffector. The capillaries were immersed into the bacterial suspension and incubated for 30 min at room temperature. Capillaries were subsequently removed from the bacterial suspension, rinsed with sterile water and the content expelled into 1 ml of M9 medium. Serial dilutions were plated onto LB medium (containing the appropriate antibiotics) and the number of colony forming units was determined. In all cases, data were corrected with the number of cells that swam into buffer containing capillaries.
# [3] = target: McpH; design: method as in ref (2) (a number printed in a supplementary file, which may have a reference list of its own: not looked up in the article's list); details: ITC, purified recombinant LBD; ref (2); cited from earlier work
# [4] = target: McpA; design: method as in ref (3) (a number printed in a supplementary file, which may have a reference list of its own: not looked up in the article's list); details: ITC, purified recombinant LBD; ref (3); cited from earlier work
smiles,measurement,setting,value
"Nc1ccccc1C(=O)O [2-ABA, 2-Aminobenzoate]",Kd,[1],89 µM
same,∆G,[1],-23.1 ± 0.29 kJ/mol
same,∆H,[1],-75.3 ± 7.53 kJ/mol
"O=C(O)c1ccccc1Cl [2-CBA, 2-chlorobenzoate]",chemotactic response,[2],did not induce a chemotactic response
same,KD,[1],No binding
"O=C(O)c1ccccc1O [2-HBA, 2-hydroxybenzoate]",chemotactic response,[2],much weaker
same,Kd,[1],24 µM
same,∆G,[1],-26.4 ± 0.13 kJ/mol
same,∆H,[1],-87.9 ± 2.5 kJ/mol
Cc1ccccc1C(=O)O [2-MBA],KD,[1],No binding
O=C(O)c1ccccc1[N+](=O)[O-] [2-NBA],KD,[1],No binding
"Nc1cccc(C(=O)O)c1 [3-ABA, 3-aminobenzoate]",Kd,[1],138 µM
same,∆G,[1],-22 ± 0.29 kJ/mol
same,∆H,[1],-68.6 ± 5.02 kJ/mol
"O=C(O)c1cccc(Cl)c1 [3-CBA, 3-chlorobenzoate]",Kd,[1],34 µM
same,∆G,[1],-25.5 ± 0.13 kJ/mol
same,∆H,[1],-55.2 ± 1.3 kJ/mol
"O=C(O)c1cccc(O)c1 [3-HBA, 3-hydroxybenzoate]",KD,[1],No Binding
"Cc1cccc(C(=O)O)c1 [3-MBA, 3-Methylbenzoate]",Kd,[1],32 µM
same,∆G,[1],-25.6 ± 0.17 kJ/mol
same,∆H,[1],-91.6 ± 4.6 kJ/mol
"O=C(O)c1cccc([N+](=O)[O-])c1 [3-NBA, 3-Nitrobenzoate]",Kd,[1],61 µM
same,∆G,[1],-24 ± 0.25 kJ/mol
same,∆H,[1],-73.2 ± 1.3 kJ/mol
"Nc1ccc(C(=O)O)cc1 [4-ABA, 4-aminobenzoate]",chemotactic response,[2],much weaker
same,Kd,[1],98 µM
same,∆G,[1],-22.8 ± 0.502 kJ/mol
same,∆H,[1],-46 ± 1.7 kJ/mol
"O=Cc1ccc(O)cc1 [4-Hbenzaldehyde, 4-hydroxybenzaldehyde]",KD,[1],No Binding
same,KD,[1]; listed as 4-hydroxybenzaldehyde,devoid of binding
"Cc1ccc(C(=O)O)cc1 [4-MBA, 4-Methylbenzoate]",Kd,[1],41 µM
same,∆G,[1],-25 ± 0.502 kJ/mol
same,∆H,[1],-55.2 ± 3.8 kJ/mol
"O=C(O)c1ccc([N+](=O)[O-])cc1 [4-NBA, 4-Nitrobenzoate]",Kd,[1],50 µM
same,∆G,[1],-24.5 ± 0.25 kJ/mol
same,∆H,[1],-57.7 ± 5.02 kJ/mol
Nc1ncnc2[nH]cnc12 [Adenine],Kd,[3],2.4 µM
"O=C(O)CCCCC(=O)O [Adipate, adipate]",KD,[1],No binding
same,KD,[1]; listed as adipate,No binding heats
NCC(=O)O [Gly],Kd,[4],35 µM
Nc1nc2nc[nH]c2c(=O)[nH]1 [Guanine],Kd,[3],4.3 µM
O=c1[nH]cnc2nc[nH]c12 [Hypoxanthine],Kd,[3],3.3 µM
C[C@H](N)C(=O)O [L-Ala],Kd,[4],13 µM
N=C(N)NCCC[C@H](N)C(=O)O [L-Arg],Kd,[4],1.2 µM
NC(=O)C[C@H](N)C(=O)O [L-Asn],Kd,[4],4.3 µM
N[C@@H](CS)C(=O)O [L-Cys],Kd,[4],0.6 µM
NC(=O)CC[C@H](N)C(=O)O [L-Gln],Kd,[4],5.5 µM
CC[C@H](C)[C@H](N)C(=O)O [L-Ile],Kd,[4],85 µM
CSCC[C@H](N)C(=O)O [L-Met],Kd,[4],5.8 µM
N[C@@H](Cc1ccccc1)C(=O)O [L-Phe],Kd,[4],2.3 µM
N[C@@H](CO)C(=O)O [L-Ser],Kd,[4],43 µM
N[C@@H](Cc1ccc(O)cc1)C(=O)O [L-Tyr],Kd,[4],12.1 µM
CC(C)[C@H](N)C(=O)O [L-Val],Kd,[4],373 µM
"O=C(O)CC(O)C(=O)O (stereo not drawn) [Malate, malate]",KD,[1],did not show any binding
c1ncc2nc[nH]c2n1 [Purine],Kd,[3],2.4 µM
"O=C(O)CCC(=O)O [Succinate, succinate]",KD,[1],did not show any binding
O=c1[nH]c(=O)c2[nH]c(=O)[nH]c2[nH]1 [Uric acid],Kd,[3],1.3 µM
"COc1cc(C(=O)O)ccc1O [Vanillate, vanillate]",Kd,[1],11 µM
same,∆G,[1],-28 ± 0.13 kJ/mol
same,∆H,[1],-53.6 ± 7.11 kJ/mol
"COc1cc(C=O)ccc1O [Vanillin, vanillin]",KD,[1],No binding
same,KD,[1]; listed as vanillin,absence of binding
O=c1[nH]c(=O)c2nc[nH]c2[nH]1 [Xanthine],Kd,[3],2.7 µM
